Measurements taken from ChEMBL document CHEMBL1158247, “Isolation of Isodrimenediol, a Possible Intermediate of Drimane Biosynthesis from Polyporus arcularius” (1996).
Converted amounts (≈) assume the structure as drawn.

What was measured:
Staphylococcus aureus = assay: Antimicrobial activity against Staphylococcus aureus SG511 by agar diffusion method; format: functional
[1] = test system: Sporobolomyces salmonicolor; assay: Antimicrobial activity against Sporobolomyces salmonicolor 549 by agar diffusion method; format: functional

C=C1CC[C@H]2C(C)(C)[C@@H](O)CC[C@]2(C)[C@H]1CO [ISODRIMENEDIOL]
MIC (Staphylococcus aureus): 10 µg/mL (≈ 42 µM) | MIC [1]: 5 µg/mL (≈ 21 µM)
